Like-named read-outs stand apart in the source and are kept apart here. One block for each compound: values may come before it.
What was measured:
[1] = target: 20S human housekeeping proteasome (Homo sapiens, UniProt P28074); assay: 20S ChT-L proteolytic activity assay (Suc-LLVY-AMC hydrolysis, Rpt5 peptide-activated); assay type: biochemical; settings: for activity against 20S ChT-L proteolysis, in words: SAR comparison
Description: Compounds were evaluated for proteasome activity using the 20S human housekeeping proteasome. It was activated with the Rpt5 derived 10-residue peptide that contains the C-terminal HbYX (hydrophobic-Tyr-any AA) motif activating the proteasome in trans and to some extend mimic the activation by the 19S regulatory particle (Osmulski and Gaczynska (2013) Molecular pharmacology 84: 104-113; Smith et al. (2006) J. Struct. Biol. 156: 72-83; Smith et al. (2007) Mol. Cell 27: 731-744). Proteolytic activity was monitored over time using a fluorogenic peptide substrate specific for the chymotrypsin-like active center (ChT-L, Suc-LLVY-AMC) in the presence of a concentration range of the inhibitors. In this activity assay, hydrolysis of the substrate results in release of the highly fluorescent aminomethylcoumarin fluorophore. The linear portions of the fluorescence intensity plots were used to calculate the rates of Suc-LLVY-AMC hydrolysis and an IC50 (concentration of drug at which 50% of the maximum rate inhibition occurs) is determined.

[2] = test system: autophagy-related protein 7 (ATG7); assay: Levels of autophagy-related protein 7 (ATG7) in lysates (Western blotting); assay type: cell-based, mouse; settings: model-wasted cells
Description: (§1) The mechanism of the anti-wasting action of proteasome modulators can be probed by measuring the 26S activity in lysates and measuring the levels of autophagy-related protein 7 (ATG7) in lysates. Excessive activity of 26S holoenzyme bears prime responsibility for degradation of muscle proteins during wasting. […] Autophagy, alongside proteasome pathway, aggravates degeneration.

C2C12 cells = assay: Principal component analysis of AFM-assessed mechanical parameters of model myotubes; assay type: cell-based, mouse; settings: C2C12 cells treated with TNFα plus compound
Description: (§2) Cultured cells growing on dishes were scanned with a Catalyst Atomic Force Microscope (Bruker) mounted on a Nikon Ti inverted epifluorescent microscope. Nanomechanical parameters of cells were collected in the Quantitative Nanomechanical Mapping (PF-QNM) mode of the AFM. Before AFM imaging, optical images were recorded for each cell. SCANASYST-AIR probes were used for imaging after their spring constant was determined with the thermal tuning. Cell boundaries were located with peak force error (PFE) AFM images and further verified with height images. Nanomechanical parameters of cells were captured in three separate PF-QNM channels: elasticity (or stiffness—the Young's modulus), deformation and adhesion. Analysis of these parameters was performed with NanoScope Analysis software v. 1.7 (Osmulski, P. A., et al., Cancer Res. 2021 Aug. 1; 81(15):4110-4123). Force curves were fit to the Sneddon model. Mode values of the mechanical parameters for individual cells were calculated from the corresponding distribution histograms. The Texture Aspect Ratio, as a measure of the spatial isotropy or directionality of the surface texture was calculated from the square height images of cells after applying the first order flatten function (Roughness Analysis in NanoScope Analysis v. 1.7).
Mouse C2C12 myoblasts were purchased in American Tissue Type Collection (ATCC CRL-1772) were cultured in Dulbecco's modified Eagle's medium (DMEM) supplementec with 15% fetal bovine serum (FBS) and penicillin/streptomycin, at 37° C. and 5% CO2. […]
Principal component analysis (PCA) was utilized to evaluate the AFM-assessed mechanical parameters of model myotubes in C2C12 cells treated with TNFα alone or with compounds B1 or C3. […]

C2C12 myotubes = assay: Myotube morphology (diameters) in the TNFα-induced muscle atrophy cell culture model; assay type: cell-based, mouse; settings: for myotube morphology when applied alongside TNFα: TNFα 15 ng/ml for 72 hours, compound added together with TNFα; for effect on cell morphology in the control: compound without TNFα
Description: Mouse C2C12 myoblasts were purchased in American Tissue Type Collection (ATCC CRL-1772) were cultured in Dulbecco's modified Eagle's medium (DMEM) supplementec with 15% fetal bovine serum (FBS) and penicillin/streptomycin, at 37° C. and 5% CO2. After reaching confluence the myoblasts were differentiated into myotubes by culturing for 72 hours under low-serum conditions (2% horse serum, 0.5 microgram/ml insulin. After that, model muscle atrophy was induced by the treatment with tumor necrosis factor alpha (TNFα) at 15 ng/ml for 72 hours. Vehicle (dimethylsulfoxide; DMSO) or desired compounds (B1, C3, bortezomib) were added to the culture medium together with TNFα.
Myotubes were visualized as described in Eric J. Stevenson, et al., Journal of Applied Physiology 2005 98:4, 1396-1406. All myotubes analyzed in randomly selected microscope fields, with three diameters per tube and at least 50 myotubes analyzed per experimental point.
The diameters of C2C12 myotubes can be utilized to look for indications of degeneration.

[3] = test system: C2C12-derived mouse myocytes; assay: Cellular AFM: cell surface isotropy (cytoskeleton organization) of model myotubes; assay type: cell-based; settings: compound accompanies TNFα; AFM roughness analysis
Description: as §2, with “Nanomechanical parameters of cells were captured in three separate PF-QNM channels: elasticity (or stiffness—the Young's modulus), deformation and adhesion. Analysis of these parameters was performed with NanoScope Analysis software v. 1.7 (Osmulski, P. A., et al., Cancer Res. 2021 Aug. 1; 81(15):4110-4123). Force curves were fit to the Sneddon model.” left out, “1.7). […]” for “1.7).”
Cellular atomic force microscopy (AFM) of C2C12-derived mouse myocytes was utilized to show the effect of TNFα on the cytosketon organization of the myotube surface patterns (FIG. 5). The regularity of the pattern can be assessed by roughness analysis of the AFM images.
The surface isotropy parameter can quantify the regularity of the patterns observed in AFM. […]

26S holoenzyme = assay: 26S activity in lysates (in-gel activity assay, Suc-LLVY-MCA overlay); assay type: cell-based, mouse; settings: model-wasted cells
Description: as §1

[4] = test system: myofibers in quadriceps of tumor-bearing mice; assay: In vivo mouse model of cancer cachexia (nude mice xenografted with PC3 cells), quadriceps myofiber diameters, H&E
Description: The mouse model of cancer-related muscle wasting consistent of nude mice xenografted with human cultured androgen-resistant prostate cancer PC3 cells. The mice were treated intra-tumorally (IT) with the vehicle (dimethylsulfoxide; DMSO); 8 control mice) or with 10 mg/kg of compound 3. Three injections per week (Mondays, Wednesdays, and Fridays) were carried for three weeks. After that, mice were sacrificed and quadriceps muscle tissues were preserved by standard formalin fixing. Muscle tissue slices were stained with hematoxilin and eosin (H&E standard staining) to visualize muscle fibers and enable myofiber diameter measurements under a standard microscope. Myofibers for 4 control (vehicle-treated) and 4 compound 3-treated mice were measured.
The quadriceps muscle in tumor-bearing mice treated with C3 […] a weeks for three weeks was compared to control using H&E-stained tissues slices (FIG. 10). Frequency analysis of diameters of myofibers (400 myofibers each) from tumor-bearing mice (4 each of the control-vehicle and c3 (10 mg/kg)) was performed (FIG. 11).

[5] = Table 3, proline derivatives, ChT-L activity of 20S, read-out: IC50
[6] = Table 2, pipecolic acid derivatives, ChT-L activity of 20S, read-out: IC50
[7] = read-out: IC50, ChT-L activity of the 20S proteasome

SMILES: COc1cc(CCCOC(=O)[C@@H]2CCCCN2C(=O)OCC(C)C)cc(OC)c1OC [Compound 4]
IC50 [1, 7]: 15.2 µM

SMILES: COc1cc(COC(=O)[C@@H]2CCCCN2C(=O)OCc2ccccc2)cc(OC)c1OC [Compound 7]
activity against 20S ChT-L proteolysis, in words [1]: significantly reduced its activity | IC50 [1, 6]: 19.8 µM

SMILES: CC(C)C[C@H](NC(=O)[C@H](Cc1ccccc1)NC(=O)c1cnccn1)B(O)O [bortezomib, reference compound]
autophagy (ATG7 levels in lysates) [2]: upregulates autophagy | AFM-assessed mechanical parameters (PCA phenotype) (C2C12 cells): does not protect the phenotypes | myotube morphology when applied alongside TNFα (C2C12 myotubes): failed to protect the myotubes | effect on cell morphology in the control (C2C12 myotubes): harmed the cells

SMILES: COc1cc(CCCOC(=O)C2CCCCN2C(=O)C(=O)C2CCCCC2)cc(OC)c1OC (racemic) [B1]
cell surface patterning (surface isotropy) [3]: remains control-like | autophagy (ATG7 levels in lysates) [2]: does not affect or mitigates autophagy | AFM-assessed mechanical parameters (PCA phenotype) (C2C12 cells): preserve the control-like phenotypes | myotube morphology when applied alongside TNFα (C2C12 myotubes): restored the morphogy to control-like status | effect on cell morphology in the control (C2C12 myotubes): no effect on the cell morphology | 26S activity in lysates (26S holoenzyme): mitigates the activity | IC50 [1, 6]: 5.8 µM

SMILES: COC(=O)N1CCCC[C@H]1C(=O)OCCCc1cc(OC)c(OC)c(OC)c1 [Compound 5]
activity against 20S ChT-L proteolysis, in words [1]: completely abrogated activity | IC50 [1, 6]: > 50 µM

SMILES: COc1cc(CCCOC(=O)C2CCCCN2C(=O)OCc2ccccc2)cc(OC)c1OC (racemic) [Compound 2]
IC50 [1, 7]: 11.5 µM

SMILES: COc1cc(CCOC(=O)[C@@H]2CCCCN2C(=O)OCc2ccccc2)cc(OC)c1OC [Compound 6]
IC50 [1, 6]: 20.1 µM

SMILES: COc1cc(CCCOC(=O)[C@@H]2CCCCN2C(=O)OCc2ccccc2)cc(OC)c1OC [Compound 3]
cell surface patterning (surface isotropy) [3]: remains control-like | autophagy (ATG7 levels in lysates) [2]: does not affect or mitigates autophagy | AFM-assessed mechanical parameters (PCA phenotype) (C2C12 cells): preserve the control-like phenotypes | myotube morphology when applied alongside TNFα (C2C12 myotubes): restored the morphogy to control-like status | effect on cell morphology in the control (C2C12 myotubes): no effect on the cell morphology | 26S activity in lysates (26S holoenzyme): mitigates the activity | diameters of myofibers (frequency analysis) ([4]; 400 myofibers each, 4 mice each, 10 mg/kg vs control-vehicle, difference significant at p<1.47×10^−21): Higher values of myofiber diameters | myofiber morphology in quadriceps ([4]; tumor-bearing mice, 10 mg/kg intra-tumorally, three weeks, vs vehicle): improved myofiber morphology | IC50 [1, 6]: 2 µM | IC50 [1, 7]: 3.1 µM

Other lines, results leading:

activity against 20S ChT-L proteolysis, in words [1]: modest activity | IC50 [1, 5]: 23.8 µM
SMILES: COc1cc(CCCOC(=O)[C@@H]2CCCN2C(=O)OCc2ccccc2)cc(OC)c1OC [Compound 12]

activity against 20S ChT-L proteolysis, in words [1]: significantly reduced its activity | IC50 [1, 6]: 2.6 µM
SMILES: O=C(OCCCc1ccccc1)[C@@H]1CCCCN1C(=O)OCc1ccccc1 [Compound 8]

IC50 [1, 7]: 6.6 µM
SMILES: O=C(OCCCc1ccccc1)[C@@H]1CCCN1C(=O)OCc1ccccc1 [Compound 13]

IC50 [1, 6]: > 50 µM
SMILES: CCCOC(=O)[C@@H]1CCCCN1C(=O)OCc1ccccc1 [Compound 9]

activity against 20S ChT-L proteolysis, in words [1]: decreased activity | IC50 [1, 5]: 33.5 µM
SMILES: O=C(OCc1ccccc1)[C@@H]1CCCN1C(=O)OCc1ccccc1 [Compound 15]

activity against 20S ChT-L proteolysis, in words [1]: decreased activity | IC50 [1, 5]: 19.2 µM
SMILES: O=C(OCCc1ccccc1)[C@@H]1CCCN1C(=O)OCc1ccccc1 [Compound 14]

IC50 [1, 6]: 14.7 µM
SMILES: COc1cc(CCCOC(=O)[C@@H]2CCCN(C(=O)OCc3ccccc3)C2)cc(OC)c1OC [Compound 11]

IC50 [1, 6]: > 50 µM
SMILES: O=C(O)[C@@H]1CCCCN1C(=O)OCc1ccccc1 [Compound 10]
